≈ marks a conversion by molar mass, not a printed value. Calls of active or inactive are those of the source. The calls are words filed in the database; no cut-off is given here.
Assays:
[1] = system: MDA-MB-435; experiment: Cytotoxicity against Homo sapiens (human) MDA-MB-435 cells assessed as inhibition of cell viability by SRB assay; type: functional, cell-based
[2] = system: HeLa; experiment: Cytotoxicity against Homo sapiens (human) HeLa cells assessed as inhibition of cell viability by MTT assay; type: functional, cell-based
[3] = system: MDA-MB-435; experiment: Cytotoxicity against Homo sapiens (human) MDA-MB-435 cells assessed as inhibition of cell viability by MTT assay; type: functional, cell-based
[4] = system: HeLa; experiment: Cytotoxicity against Homo sapiens (human) HeLa cells assessed as inhibition of cell viability by SRB assay; type: functional, cell-based
[5] = system: Rattus norvegicus; experiment: Anti-inflammatory activity in Wistar Rattus norvegicus (rat) assessed as inhibition of carrageenan-induced paw edema at 100 mg/kg/day, po measured after 3 hr; type: functional
[6] = system: Rattus norvegicus; experiment: Anti-inflammatory activity in Wistar Rattus norvegicus (rat) assessed as inhibition of carrageenan-induced paw edema at 50 mg/kg, po measured after 3 hr; type: functional
[7] = Anticancer activity against Mus musculus (mouse) EAC cells xenografted in albino mouse assessed as median survival time at 100 mg/kg/day administered for 9 days (reference value: 17 days); type: functional, Ehrlich
[8] = Anticancer activity against Mus musculus (mouse) EAC cells xenografted in albino mouse assessed as median survival time at 50 mg/kg/day administered for 9 days (reference value: 17 days); type: functional, Ehrlich
[9] = Anticancer activity against Mus musculus (mouse) EAC cells xenografted in albino mouse assessed as mean survival time at 100 mg/kg/day administered for 9 days (reference value: 17.33 +/-0.21 days); type: functional, Ehrlich
[10] = Anticancer activity against Mus musculus (mouse) EAC cells xenografted in albino mouse assessed as mean survival time at 50 mg/kg/day administered for 9 days (reference value: 17.33 +/-0.21 days); type: functional, Ehrlich
[11] = Anticancer activity against Mus musculus (mouse) EAC cells xenografted in albino mouse assessed as increase in body weight at 100 mg/kg/day administered for 9 days measured on day 15 (reference value: 58.81 +/-2.67%); type: functional, Ehrlich
[12] = Anticancer activity against Mus musculus (mouse) EAC cells xenografted in albino mouse assessed as increase in body weight at 100 mg/kg/day administered for 9 days measured on day 12 (reference value: 44.42 +/-2.82%); type: functional, Ehrlich
[13] = Anticancer activity against Mus musculus (mouse) EAC cells xenografted in albino mouse assessed as increase in body weight at 100 mg/kg/day administered for 9 days measured on day 6 (reference value: 16.31 +/-0.48%); type: functional, Ehrlich
[14] = system: HeLa; experiment: Cell cycle arrest in Homo sapiens (human) HeLa cells assessed as accumulation of cells at G2/M phase after 48 hr by FACS analysis (reference value: 18.65%); type: functional
[15] = Anticancer activity against Mus musculus (mouse) EAC cells xenografted in albino mouse assessed as increase in median life span at 100 mg/kg/day administered for 9 days; type: functional, Ehrlich
[16] = system: HeLa; experiment: Ratio of 6-aminoflavone IC50 to compound IC50 for Homo sapiens (human) HeLa cells; type: functional
[17] = system: HeLa; experiment: Cytotoxicity against Homo sapiens (human) HeLa cells assessed as morphological changes after 24 hr by microscopic analysis; type: functional, cell-based
[18] = Anticancer activity against Mus musculus (mouse) EAC cells xenografted in albino mouse assessed as increase in mean life span at 50 mg/kg/day administered for 9 days; type: functional, Ehrlich
[19] = system: HeLa; experiment: Cell cycle arrest in Homo sapiens (human) HeLa cells assessed as accumulation of cells at G0/G1 phase after 48 hr by FACS analysis (reference value: 74.27%); type: functional
[20] = system: MDA-MB-435; experiment: Ratio of 6-aminoflavone IC50 to compound IC50 for Homo sapiens (human) MDA-MB-435 cells; type: functional
[21] = Anticancer activity against Mus musculus (mouse) EAC cells xenografted in albino mouse assessed as increase in body weight at 100 mg/kg/day administered for 9 days measured on day 3 (reference value: 4.56 +/-0.52%); type: functional, Ehrlich
[22] = Anticancer activity against Mus musculus (mouse) EAC cells xenografted in albino mouse assessed as increase in body weight at 100 mg/kg/day administered for 9 days measured on day 9 (reference value: 34.31 +/-1.06%); type: functional, Ehrlich
[23] = system: Ehrlich; experiment: Anticancer activity against Mus musculus (mouse) EAC cells xenografted in albino mouse assessed as decrease in ascites fluid volume at 50 to 100 mg/kg/day administered for 9 days; type: functional, organism-based
[24] = Anticancer activity against Mus musculus (mouse) EAC cells xenografted in albino mouse assessed as increase in mean life span at 100 mg/kg/day administered for 9 days; type: functional, Ehrlich
[25] = Anticancer activity against Mus musculus (mouse) EAC cells xenografted in albino mouse assessed as increase in median life span at 50 mg/kg/day administered for 9 days; type: functional, Ehrlich
[26] = system: HeLa; experiment: Cell cycle arrest in Homo sapiens (human) HeLa cells assessed as accumulation of cells at S phase after 48 hr by FACS analysis (reference value: 6.34%); type: functional
[27] = system: HeLa; experiment: Cell cycle arrest in Homo sapiens (human) HeLa cells assessed as accumulation of cells at Sub-G0 phase after 48 hr by FACS analysis (reference value: 1.15%); type: functional

## O=C1/C(=C\c2ccc(O)cc2)N=C(c2ccccc2)N1c1ccc2oc(-c3ccccc3)cc(=O)c2c1
[1]
  IC50: 21.4 µg/mL (≈ 44.1 µM)
[2]
  IC50: 16.4 µg/mL (≈ 33.8 µM)
[3]
  IC50: 18 µg/mL (≈ 37.2 µM)
[4]
  IC50: 18.9 µg/mL (≈ 39 µM)
[5]
  inhibition in vivo at 100 mg/kg/day: 47.6%

## O=C1/C(=C\c2ccccc2)N=C(c2ccccc2)N1c1ccc2oc(-c3ccccc3)cc(=O)c2c1
[1]
  IC50: 26.4 µg/mL (≈ 56.3 µM)
[2]
  IC50: 20.1 µg/mL (≈ 42.9 µM)
[3]
  IC50: 24.3 µg/mL (≈ 51.8 µM)
[4]
  IC50: 20.9 µg/mL (≈ 44.6 µM)
[5]
  inhibition in vivo at 100 mg/kg/day: 38.2%

## CC(C)Cc1ccc(C(C)C(=O)O)cc1 (stereo not drawn) [IBUPROFEN]
[6]
  inhibition in vivo at 50 mg/kg: 67.1%

## COc1ccc(/C=C2/N=C(c3ccccc3)N(c3ccc4oc(-c5ccccc5)cc(=O)c4c3)C2=O)cc1
[1]
  IC50: 21.7 µg/mL (≈ 43.6 µM)
[2]
  IC50: 14.2 µg/mL (≈ 28.6 µM)
[3]
  IC50: 18.5 µg/mL (≈ 37.1 µM)
[4]
  IC50: 17.6 µg/mL (≈ 35.3 µM)
[5]
  inhibition in vivo at 100 mg/kg/day: 45.1%

## COc1ccc(/C=C2/N=C(c3ccccc3)N(c3ccc4oc(-c5ccccc5)cc(=O)c4c3)C2=O)cc1OC
[1]
  IC50: 11.9 µg/mL (≈ 22.6 µM)
[7]
  MST: 23 days
[8]
  MST: 22.5 days
[2]
  IC50: 9.87 µg/mL (≈ 18.7 µM)
[9]
  MST: 23 days
[10]
  MST: 22.33 days
[11]
  Activity: 19.99%
[12]
  Activity: 17.47%
[3]
  IC50: 10.8 µg/mL (≈ 20.4 µM)
[13]
  Activity: 9.39%
[14]
  Activity: 28.37%
[15]
  Activity: 35.29%
[16]
  Ratio IC50: 5
[17]
  Activity: Active
[18]
  Activity: 28.87%
[19]
  Activity: 36.8%
[20]
  Ratio IC50: 5
[21]
  Activity: 3.58%
[22]
  Activity: 13.63%
[23]
  inhibition: Active
[24]
  Activity: 32.72%
[25]
  Activity: 32.35%
[26]
  Activity: 14.1%
[4]
  IC50: 11.1 µg/mL (≈ 21 µM)
[27]
  Activity: 21.63%
[5]
  inhibition in vivo at 100 mg/kg/day: 49.8%

## O=C1/C(=C\c2ccc(Cl)c(Cl)c2)N=C(c2ccccc2)N1c1ccc2oc(-c3ccccc3)cc(=O)c2c1
[1]
  IC50: 20.1 µg/mL (≈ 37.5 µM)
[2]
  IC50: 15.2 µg/mL (≈ 28.3 µM)
[3]
  IC50: 16.9 µg/mL (≈ 31.4 µM)
[4]
  IC50: 16 µg/mL (≈ 29.7 µM)
[5]
  inhibition in vivo at 100 mg/kg/day: 36.5%

## COc1cccc2c1C(=O)c1c(O)c3c(c(O)c1C2=O)C[C@@](O)(C(=O)CO)C[C@@H]3O[C@H]1C[C@H](N)[C@H](O)[C@H](C)O1.Cl [DOXORUBICIN HYDROCHLORIDE]
[1]
  IC50: 0.93 µg/mL
[3]
  IC50: 0.77 µg/mL
[14]
  Activity: 76.76%
[19]
  Activity: 16.62%
[26]
  Activity: 4.01%
[27]
  Activity: 2.22%

## Nc1ccc2oc(-c3ccccc3)cc(=O)c2c1 [6-AMINOFLAVONE]
[1]
  IC50: 78.4 µg/mL (≈ 330 µM)
[2]
  IC50: 55.8 µg/mL (≈ 235 µM)
[3]
  IC50: 59.5 µg/mL (≈ 251 µM)
[4]
  IC50: 63.6 µg/mL (≈ 268 µM)
[5]
  inhibition in vivo at 100 mg/kg/day: 24.2%
